# Measurements from patent US20100040552A1, “METHODS TO EVALUATE GLUCOCORTICOID RECEPTOR AGONISTS AND ANTAGONISTS FOR EFFECTS ON NEURON-LIKE CELLS” (ROSETTA INPHARMATICS LLC, priority 2005, published 2010).
# Columns and labels:
# Glucocorticoid Receptor [1] = target: T1, Glucocorticoid Receptor (Homo sapiens, UniProt P04150); assay: Transactivation assay, A549 cells; type: cell-based
# T1 sequence (P04150 1-777): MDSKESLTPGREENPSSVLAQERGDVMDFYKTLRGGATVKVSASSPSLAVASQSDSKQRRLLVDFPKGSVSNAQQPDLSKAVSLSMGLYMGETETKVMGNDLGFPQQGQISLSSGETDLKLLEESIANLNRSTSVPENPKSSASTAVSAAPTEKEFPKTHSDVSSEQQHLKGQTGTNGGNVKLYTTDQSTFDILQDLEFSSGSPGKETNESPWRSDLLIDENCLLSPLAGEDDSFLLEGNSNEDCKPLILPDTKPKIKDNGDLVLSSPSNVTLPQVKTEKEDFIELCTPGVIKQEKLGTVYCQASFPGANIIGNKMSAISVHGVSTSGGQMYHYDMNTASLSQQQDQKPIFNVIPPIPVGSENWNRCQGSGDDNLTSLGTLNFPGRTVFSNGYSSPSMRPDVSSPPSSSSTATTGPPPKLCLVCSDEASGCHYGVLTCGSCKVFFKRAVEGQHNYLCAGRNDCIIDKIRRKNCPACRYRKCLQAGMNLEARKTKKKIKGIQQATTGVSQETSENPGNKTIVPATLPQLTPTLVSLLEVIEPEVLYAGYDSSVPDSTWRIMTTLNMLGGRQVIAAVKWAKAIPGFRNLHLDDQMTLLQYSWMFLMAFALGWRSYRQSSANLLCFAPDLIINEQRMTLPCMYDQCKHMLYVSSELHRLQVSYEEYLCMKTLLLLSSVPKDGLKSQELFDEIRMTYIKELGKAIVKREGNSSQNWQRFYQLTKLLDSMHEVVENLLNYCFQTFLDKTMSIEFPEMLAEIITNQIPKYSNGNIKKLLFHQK
# A549 cells = assay: A549 cell molecular profiling experiment; type: cell-based; settings: for Up-regulated genes in category DMSO (<0%) / Up-regulated genes in category Full (≧90%) / Up-regulated genes in category High (66.7-90%) / Up-regulated genes in category Low (0-33.3%) / Up-regulated genes in category Middle (33.3-66.7%): set of 1091 genes; for Down-regulated genes in category DMSO (<0%) / Down-regulated genes in category Full (≧90%) / Down-regulated genes in category High (66.7-90%) / Down-regulated genes in category Low (0-33.3%) / Down-regulated genes in category Middle (33.3-66.7%): set of 1249 genes
# CA77 cells [2] = assay: CA77 cell assay, real-time RT-PCR (TaqMan); type: cell-based, rat
# Protocol: Assay: CA77 cells were plated into 96 well tissue culture dishes at a density of 8×10^4 cells per well in 200 μl of PM and the cultures maintained in a humidified air atmosphere (7.5% CO2) at 37° C. This media was aspirated after 24 hours and replaced with 200 μl of GM and the cultures incubated as before, for an additional 48 hours, at which time the cultures were at approximately 90% confluency.
# For the evaluation of agonist activity, the GM was aspirated, replaced with 200 μl of fresh GM containing concentrations of a drug ranging from 0.1 nM to 10,000 nM in a 10-fold dilution series. Control wells of 0 nM drug in GM and 0.1% DMSO in GM were included in the series for each drug. Each drug concentration and the two controls were evaluated on 4 wells. The cultures were maintained in a humidified air atmosphere (7.5% CO2) at 37° C. for 24 hours.
# Control wells of 0 nM drug in GM containing 250 nM corticosterone and 0.1% DMSO in GM (without corticosterone) were included in the series for each drug. Each drug concentration and the two controls were evaluated on 4 wells. The cultures were maintained in a humidified air atmosphere (7.5% CO2) at 37° C. for 24 hours.
# Lysis of Cells and Isolation of mRNA: Two methods were employed for the lysis of the cells and the isolation of mRNA at the end of the 24-hour incubation with the drugs.
# One method was the mRNA Catcher™ Method (using Kit number 37001, sold by Invitrogen Corporation). The GM was aspirated from the cells, the cell monolayer was washed once with PBS (product number 10010, sold by Invitrogen Corporation), and then the cells were lysed in 30 μl of the kit lysis buffer containing 1% β-ME for 5 minutes at room temperature. The lysates were snap frozen in the 96-well plate by placing the plate on dry ice pellets, and the plate was then stored at −80° C.
# The lysates were thawed at room temperature and then transferred into individual wells in the mRNA Catcher™ plate. The plate was covered and incubated for 90 minutes at room temperature for RNA hybridization. […]
# Sult1a1 = assay: In vivo Sult1a1 expression assay (Example 2); design: species or system rat; settings: co-administered with dexamethasone
# Protocol: Methods: […] […] The rats were sacrificed 6 hours after the final dose and the hippocampus, raphe and caudate nucleus were dissected and placed in […]® (Qiagen, Valencia, Calif.) for 24 hours. The tissue was then placed in a fresh tube and stored at -80 C. Total RNA was prepared using Trizol® (InVitrogen, Carlsbad, Calif.) using the manufacturer's standard protocol. The total RNA was DNase treated and cDNA was made using the methods described in Example 1 in connection with CA77 cell cDNA preparation.
# Glucocorticoid Receptor [3] = target: T1, Glucocorticoid Receptor; assay: Transrepression assay, COS cells; type: cell-based; design: host or cells: COS cells
# Glucocorticoid Receptor [4] = target: T1, Glucocorticoid Receptor; assay: Classification of effect on the glucocorticoid receptor; type: cell-based; design: host or cells: COS cells; settings: as assessed by MDA and A549 transactivation and COS transrepression assays
# [5] = tested on: RGS2, RGS4 and Sult1a1 gene expression; assay: In vivo RT-PCR of rat caudate and raphe nucleus (Example 1)
# Description: Cross-hatched bars represent RGS2 gene expression. Unhatched bars represent RGS4 gene expression. ** p=0.003. * p=0.001.
# Cross-hatched bars represent Sult1a1 gene expression in the caudate nucleus. Unhatched bars represent Sult1a1 gene expression in the raphe nucleus. *p<0.001.
# Glucocorticoid Receptor [6] = target: T1, Glucocorticoid Receptor; assay: Transactivation assay, MDA cells; type: cell-based; design: host or cells: MDA cells; settings: maximal response
# CA77 cells [7] = assay: CA77 cell microarray profiling; type: cell-based, rat
# Protocol: In order to reduce false positives, progesterone, estradiol, and aldosterone served as out-groups for non-specific effects. Samples were collected at both 6 hours and 24 hours after contacting the CA77 cells with a compound.
# RGS2 and RGS4 mRNA = settings: cited from earlier work
# [8] = target: T2, MR (mineralocorticoid receptor) (Homo sapiens, UniProt P08235); assay: MR binding study
# T2 sequence (P08235 1-984): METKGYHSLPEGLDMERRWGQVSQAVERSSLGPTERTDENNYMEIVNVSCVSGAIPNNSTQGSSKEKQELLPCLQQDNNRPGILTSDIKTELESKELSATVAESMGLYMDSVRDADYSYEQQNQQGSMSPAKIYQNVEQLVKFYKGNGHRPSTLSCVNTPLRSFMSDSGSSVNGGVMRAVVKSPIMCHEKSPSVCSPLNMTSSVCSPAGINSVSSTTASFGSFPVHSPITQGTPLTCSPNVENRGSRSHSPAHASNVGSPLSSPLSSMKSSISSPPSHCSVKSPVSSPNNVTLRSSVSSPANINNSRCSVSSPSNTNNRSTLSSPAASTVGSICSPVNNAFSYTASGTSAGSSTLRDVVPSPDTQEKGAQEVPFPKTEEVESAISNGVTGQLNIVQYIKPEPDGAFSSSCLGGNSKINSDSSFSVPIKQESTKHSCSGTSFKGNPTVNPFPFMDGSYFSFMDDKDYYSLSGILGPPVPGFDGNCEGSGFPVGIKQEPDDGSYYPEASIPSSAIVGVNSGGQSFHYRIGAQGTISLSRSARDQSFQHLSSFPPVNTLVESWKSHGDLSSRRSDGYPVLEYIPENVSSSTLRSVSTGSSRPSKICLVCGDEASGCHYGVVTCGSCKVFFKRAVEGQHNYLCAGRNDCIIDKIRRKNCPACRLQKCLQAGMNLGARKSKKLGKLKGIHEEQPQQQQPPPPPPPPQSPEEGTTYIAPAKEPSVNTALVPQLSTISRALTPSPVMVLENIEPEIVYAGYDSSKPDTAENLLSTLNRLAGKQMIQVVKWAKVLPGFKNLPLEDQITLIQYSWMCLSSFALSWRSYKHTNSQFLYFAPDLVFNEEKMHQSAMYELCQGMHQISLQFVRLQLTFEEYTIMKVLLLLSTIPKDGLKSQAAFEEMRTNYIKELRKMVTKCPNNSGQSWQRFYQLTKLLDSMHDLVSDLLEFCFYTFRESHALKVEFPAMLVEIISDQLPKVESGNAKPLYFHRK
# Description: The following abbreviations are used in Table II: MR, mineralocorticoid receptor; GR, glucocorticoid receptor; and PR, progesterone receptor.
smiles,measurement,setting,value
"CC#C[C@]1(O)CC[C@H]2[C@@H]3CCC4=CC(=O)CCC4=C3[C@@H](c3ccc(N(C)C)cc3)C[C@@]21C [RU-486, mifepristone]",Emax,"Glucocorticoid Receptor [1]; A549, read-out: Transactivation, A549 Emax",90%
same,Up-regulated genes in category DMSO (<0%),A549 cells; 1 μm,287
same,Up-regulated genes in category Full (≧90%),A549 cells; 1 μm,38
same,Up-regulated genes in category High (66.7-90%),A549 cells; 1 μm,63
same,Up-regulated genes in category Low (0-33.3%),A549 cells; 1 μm,449
same,Up-regulated genes in category Middle (33.3-66.7%),A549 cells; 1 μm,254
same,Down-regulated genes in category DMSO (<0%),A549 cells; 1 μm,454
same,Down-regulated genes in category Full (≧90%),A549 cells; 1 μm,41
same,Down-regulated genes in category High (66.7-90%),A549 cells; 1 μm,70
same,Down-regulated genes in category Low (0-33.3%),A549 cells; 1 μm,418
same,Down-regulated genes in category Middle (33.3-66.7%),A549 cells; 1 μm,266
same,"Effect on up-regulation of RGS2, Sult1a1, IL6R and SGK by a GR agonist","CA77 cells [2]; CA77 cells, co-administered with dexamethasone",reversal of this effect
same,Effect on dexamethasone-induced Sult1a1 upregulation in the hippocampus,Sult1a1,reversal of this effect
same,Emax at 1 µM,"Glucocorticoid Receptor [3]; COS, read-out: Transrepression, COS % Emax, 1 uM",40%
same,Effect on the glucocorticoid receptor (degree of agonist activity),Glucocorticoid Receptor [4],low partial agonist activity
C[C@]12C[C@H](O)[C@H]3[C@@H](CCC4=CC(=O)CC[C@@]43C)[C@@H]1CC[C@@H]2C(=O)CO [corticosterone],EC50,"CA77 cells [2]; Rattus norvegicus, CA77 cell assay",250 nM
"C[C@H]1C[C@@H]2[C@H]([C@@H](O)C[C@@]3(C)[C@H]2CC[C@]3(O)C(=O)CO)[C@@]2(C)C=CC(=O)C=C12 [M-Prednisolone, 6α-methylprednisolone]","Transactivation, A549 Emax",Glucocorticoid Receptor [1]; maximal response,124%
same,RGS4 expression in caudate nucleus,[5]; down-regulated,about 50 % of control levels
same,RGS2 expression in caudate nucleus,[5]; upregulated vs vehicle,2 fold
same,"Transactivation, MDA Emax",Glucocorticoid Receptor [6],104%
same,"Transrepression, COS % Emax, 0.3 μM",Glucocorticoid Receptor [3]; 0.3 μM,100%
same,"Transrepression, COS % Emax, 1 uM",Glucocorticoid Receptor [3]; 1 uM,100%
C[C@]12CCC(=O)C=C1CC[C@@H]1[C@@H]2[C@@H](O)C[C@]2(C=O)[C@@H](C(=O)CO)CC[C@@H]12 [aldosterone],Activity in the GR agonist signature at 6 hours,CA77 cells [7]; 6 hours,little or no activity
same,Presence of the GR agonist signature,CA77 cells [7]; response at 24 hours,weakly present
O=C(CCCN1CCC(O)(c2ccc(Cl)cc2)CC1)c1ccc(F)cc1 [haloperidol],RGS2 mRNA,RGS2 and RGS4 mRNA,up-regulated
same,RGS4 mRNA levels,RGS2 and RGS4 mRNA,down-regulation
"C[C@]12C=CC(=O)C=C1CC[C@@H]1[C@@H]2[C@@H](O)C[C@@]2(C)[C@H]1CC[C@]2(O)C(=O)CO [Prednisolone, prednisolone]",IC50,[8],0.98 nM
same,Up-regulated genes in category DMSO (<0%),A549 cells; 100 nM,0
same,Up-regulated genes in category Full (≧90%),A549 cells; 100 nM,940
same,Up-regulated genes in category High (66.7-90%),A549 cells; 100 nM,150
same,Up-regulated genes in category Low (0-33.3%),A549 cells; 100 nM,0
same,Up-regulated genes in category Middle (33.3-66.7%),A549 cells; 100 nM,1
same,Down-regulated genes in category DMSO (<0%),A549 cells; 100 nM,0
same,Down-regulated genes in category Full (≧90%),A549 cells; 100 nM,1140
same,Down-regulated genes in category High (66.7-90%),A549 cells; 100 nM,109
same,Down-regulated genes in category Low (0-33.3%),A549 cells; 100 nM,0
same,Down-regulated genes in category Middle (33.3-66.7%),A549 cells; 100 nM,0
same,Effect on the glucocorticoid receptor (degree of agonist activity),Glucocorticoid Receptor [4],full agonist activity
